Earlier results, collected in patent publication US20100104634A1, “PHARMACEUTICAL COMPOSITIONS OF ENTACAPONE” (priority 2006, published 2010).

Settings: low solubility, low dissolution rate, low bioavailability

For `CCN(CC)C(=O)/C(C#N)=C/c1cc(O)c(O)c([N+](=O)[O-])c1` [Entacapone, (E)-2-cyano-3-(3,4-dihydroxy-5-nitrophenyl)-N,N-diethyl-2-propenamide], which “Biopharmaceutics Classification system (BCS) class” value is on record?
The value was “class IV”.
